From US20070135403A1, “Substituted 2,5-diaminomethyl-1H-pyrrole compounds” (Gruenenthal GmbH, priority 2004, published 2007) come the findings set out here.

Structures can show the parent of a compound that is named as a salt.

The target of assay [1] is T1, 5-HT transporter (5-HT uptake) (Rattus norvegicus, UniProt P31652).
T1 construct: from tissue; host or cells: rat brain synaptosomes (P2 fraction) from medulla and pons
Kind of assay: 5-HT uptake inhibition in rat brain synaptosomes (medulla and pons). In kind it is biochemical. The note with it: % inhibition. The text has this:
(§1) b) Method For Determining Noradrenalin and 5-HT Uptake Inhibition
(§2) Synaptosomes from rat brain regions are freshly isolated for in vitro studies, as described in the publication “The isolation of nerve endings from brain” by E. G. Gray and V. P. Whittaker, J. Anatomy 96, pages 79-88, 1962. The corresponding literature description is hereby introduced as a reference and is deemed to be part of the disclosure.
(§3) The tissue (hypothalamus for the determination of noradrenalin uptake inhibition and medulla and pons for the determination of 5-HT uptake inhibition) is homogenised in ice-cooled 0.32 M sucrose (100 mg of tissue/1 ml) in a glass homogeniser with Teflon pestle using five complete up and down strokes at 840 revolutions/minute.
(§4) The homogenate is centrifuged at 4° C. for 10 minutes at 1000 g. After subsequent centrifugation at 17000 g for 55 minutes, the synaptosomes (P2 fraction) are obtained, which are resuspended in 0.32 M glucose (0.5 ml/100 mg of original weight).
(§5) The particular uptake is measured in a 96-well microtitre plate. The volume is 250 μl and the incubation proceeds at room temperature (approx. 20-25° C.) under an O2 atmosphere.
(§6) The incubation time is 7.5 minutes for [^3H]—NA and 5 minutes for [^3H]-5-HT. The 96 samples are then filtered through a Unifilter GF/B® microtitre plate (Packard) and washed with […] of incubated buffer using a “Brabdel MPXRI-96T Cell-Harvester”. The Unifilter GF/B plate is dried for 1 hour at 55° C. The plate is then sealed with a Back seal® (Packard) and 35 μl of scintillation fluid are added per well (Ultima Gold®, Packard). After sealing with a top seal® (Packard) and establishing an equilibrium (around 5 hours), radioactivity is determined in a “Trilux 1450 Microbeta” (Wallac).
(§7) The quantity of protein used in the above determination corresponds to the values known from the literature, as for example described in “Protein measurement with the folin phenol reagent”, Lowry et al., J. Biol. Chem., 193, 265-275, 1951. A detailed description of the method may additionally be found in the literature, for example in M.Ch. Frink, H.-H. Hennies, W. Engelberger, M. Haurand and B. Wilffert (1996) Arzneim.-Forsch./Drug Res. 46 (III), 11, 1029-1036. The disclosures of these two articles are hereby incorporated by reference.
(§8) The following characteristics were determined for the NA or 5-HT transporter: • NA uptake: Km=0.32±0.11 μM • 5HT uptake: Km=0.084±0.011 μM

Assay [2] has as its target T2, NA transporter (NA uptake) (Rattus norvegicus, UniProt Q63380).
T2 construct: from tissue; host or cells: rat brain synaptosomes (P2 fraction) from hypothalamus
The assay can be described thus: Noradrenalin (NA) uptake inhibition in rat brain synaptosomes (hypothalamus). In kind it is biochemical. To be noted: 10 μM inhibition.
Description: as §1, §2, §3, §4, §5, §6, §7, §8

In general, inhibition refers to the share of the control response that was lost under treatment. A lower inhibition goes with a response near the control.

T2 sequence (Q63380 1-617): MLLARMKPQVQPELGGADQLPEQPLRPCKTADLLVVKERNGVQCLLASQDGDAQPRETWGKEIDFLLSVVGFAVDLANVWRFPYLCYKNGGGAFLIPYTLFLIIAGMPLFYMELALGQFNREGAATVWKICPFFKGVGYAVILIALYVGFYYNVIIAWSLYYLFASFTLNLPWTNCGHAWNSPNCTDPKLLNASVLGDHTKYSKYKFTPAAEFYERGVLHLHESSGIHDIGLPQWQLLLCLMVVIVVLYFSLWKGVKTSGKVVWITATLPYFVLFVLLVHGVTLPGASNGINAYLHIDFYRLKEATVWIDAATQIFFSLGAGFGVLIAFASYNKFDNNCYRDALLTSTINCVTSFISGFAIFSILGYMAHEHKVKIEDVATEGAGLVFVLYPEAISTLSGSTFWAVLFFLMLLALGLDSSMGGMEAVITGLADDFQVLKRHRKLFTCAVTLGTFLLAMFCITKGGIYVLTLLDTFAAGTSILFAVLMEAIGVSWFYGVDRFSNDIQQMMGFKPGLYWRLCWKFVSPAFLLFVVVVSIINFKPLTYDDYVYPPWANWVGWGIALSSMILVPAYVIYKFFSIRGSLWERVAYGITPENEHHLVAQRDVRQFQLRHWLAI
T1 sequence (P31652 whole entry): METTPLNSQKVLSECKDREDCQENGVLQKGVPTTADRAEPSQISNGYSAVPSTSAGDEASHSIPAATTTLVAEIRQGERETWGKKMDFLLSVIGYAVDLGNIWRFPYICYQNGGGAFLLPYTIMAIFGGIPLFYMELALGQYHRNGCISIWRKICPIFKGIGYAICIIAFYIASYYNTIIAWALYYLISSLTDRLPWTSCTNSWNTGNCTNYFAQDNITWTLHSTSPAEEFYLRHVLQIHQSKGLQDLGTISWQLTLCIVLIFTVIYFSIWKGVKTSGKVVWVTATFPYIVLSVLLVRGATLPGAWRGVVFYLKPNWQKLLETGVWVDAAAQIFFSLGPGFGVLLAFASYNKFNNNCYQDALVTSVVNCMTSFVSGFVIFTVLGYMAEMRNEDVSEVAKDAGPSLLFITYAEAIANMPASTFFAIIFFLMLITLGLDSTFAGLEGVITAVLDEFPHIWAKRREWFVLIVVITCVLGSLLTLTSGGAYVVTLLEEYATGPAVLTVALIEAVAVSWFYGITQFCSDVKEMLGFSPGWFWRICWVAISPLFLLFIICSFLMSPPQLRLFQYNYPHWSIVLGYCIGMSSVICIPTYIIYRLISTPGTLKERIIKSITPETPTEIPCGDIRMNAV

In assay [1] (10 μM), “4-[1-Methyl-5-(4-phenyl-piperidin-1-ylmethyl)-1H-pyrrol-2-ylmethyl]-morpholine [Example 3]” had a 5HT uptake inhibition of 59%. Further, the NA uptake inhibition in assay [2] stood at 71.

`CCN(CC)Cc1ccc(CN2CCCCC2)n1C` [Example 1, Diethyl-(1-methyl-5-piperidin-1-ylmethyl-1H-pyrrol-2-ylmethyl)-amine dihydrochloride] gave an inhibition at 10 µM in assay [1] of 34%.

Take `CC1CCN(Cc2ccc(CN3CCCCC3)n2C)CC1` [Example 2, 1-(1-Methyl-5-piperidin-1-ylmethyl-1H-pyrrol-2-ylmethyl)-4-methylpiperidine]: testing at 10 µM in assay [1] gave an inhibition of 72%.

Regarding `Cn1c(CN2CCCCC2)ccc1CN1CCN(c2ccccc2)CC1` [Example 4, 1-(1-Methyl-5-piperidin-1-ylmethyl-1H-pyrrol-2-ylmethyl)-4-phenyl-piperazine], the inhibition at 10 µM in assay [1] is 48%; in assay [2], 77%. Turning to `Cn1c(CN2CCCCCC2)ccc1CN1CCC(Cc2ccccc2)CC1` [Example 5, 1-[5-(4-Benzyl-piperidin-1-ylmethyl)-1-methyl-1H-pyrrol-2-ylmethyl]-azepane], the inhibition at 10 µM was 64% in assay [1] and 100% in assay [2]. The corresponding values for `CN(Cc1ccccc1)Cc1ccc(CN2CCC(Cc3ccccc3)CC2)n1C` [Example 6, Benzyl-[5-(4-benzyl-piperidin-1-ylmethyl)-1-methyl-1H-pyrrol-2-ylmethyl]-methyl-amine] are 61% and 100%. For `Cn1c(CN2CCOCC2)ccc1CN1CCC(Cc2ccccc2)CC1` [Example 7, 4-[5-(4-Benzyl-piperidin-1-ylmethyl)-1-methyl-1H-pyrrol-2-ylmethyl]-morpholine] the same measures were 55% and 100%.

For `CN(Cc1ccccc1)Cc1ccc(CN2CCCCCC2)n1C` [Example 8, (5-Azepan-1-ylmethyl-1-methyl-1H-pyrrol-2-ylmethyl)-benzyl-methyl-amine], in assay [2], the inhibition at 10 µM came out at 62%. In the case of `CC1CCCCN1Cc1ccc(CN(C)Cc2ccccc2)n1C` (stereo not drawn) [Example 9, Benzyl-methyl-[1-methyl-5-(2-methyl-piperidin-1-ylmethyl)-1H-pyrrol-2-ylmethyl]-amine], in assay [2], the inhibition at 10 µM was 57%. “Benzyl-methyl-[1-methyl-5-(4-phenyl-piperidin-1-ylmethyl)-1H-pyrrol-2-ylmethyl]-amine [Example 10]” displayed an NA uptake inhibition in assay [2] of 53.
